These results are taken from patent US20170190705A1, “Compositions and Methods for Inhibiting BMP” (THE BRIGHAM AND WOMAN'S HOSPITAL, INC., priority 2014, published 2017).

Common to all, as to format: biochemical
In one assay the target is T1, GRK7 (Homo sapiens, UniProt Q8WTQ7).
T1 sequence (Q8WTQ7 1-553): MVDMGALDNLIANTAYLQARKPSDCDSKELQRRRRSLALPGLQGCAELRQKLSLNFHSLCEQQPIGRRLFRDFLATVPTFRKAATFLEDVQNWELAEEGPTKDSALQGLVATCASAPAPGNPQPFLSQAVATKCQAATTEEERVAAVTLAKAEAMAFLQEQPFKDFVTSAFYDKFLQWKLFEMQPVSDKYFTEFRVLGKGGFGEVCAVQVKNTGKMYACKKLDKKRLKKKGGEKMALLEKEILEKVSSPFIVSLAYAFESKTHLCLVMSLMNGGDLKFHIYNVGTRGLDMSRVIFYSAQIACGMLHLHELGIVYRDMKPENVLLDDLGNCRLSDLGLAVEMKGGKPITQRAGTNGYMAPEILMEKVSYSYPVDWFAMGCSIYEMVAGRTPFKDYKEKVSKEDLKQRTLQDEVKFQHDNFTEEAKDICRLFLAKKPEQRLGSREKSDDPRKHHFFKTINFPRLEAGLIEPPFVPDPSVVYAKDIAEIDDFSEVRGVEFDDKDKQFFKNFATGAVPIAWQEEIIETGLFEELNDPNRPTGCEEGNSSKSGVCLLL
As to the kind of experiment: Kinome profiling GRK7. Particulars: read-out: Inhibitory activity GRK7; for inhibition at 0.1 µM: 100 nM. How it is done: (§1) . The kinome-wide selectivity was determined following the methods previously reported by Mohedas et al., ACS Chem Biol 2013, 8, 1291-1302 and Sanvitale et al., PLoS One 2013, 8, e62721.

In the next assay the target is CDK5/p35 (Homo sapiens, UniProt Q00535). As to the kind of experiment: Kinome profiling CDK5/p35. Particulars: read-out: Inhibitory activity CDK5/p35; for inhibition at 0.1 µM: 100 nM. How it is done: as §1
A further assay addresses JAK2 (Homo sapiens, UniProt O60674). As to the kind of experiment: Kinome profiling JAK2. To be noted: read-out: Inhibitory activity JAK2; for inhibition at 0.1 µM: 100 nM. How it is done:
as §1

Another assay has as its target T2, PKC-1 (Homo sapiens, UniProt P41743).
T2 sequence (P41743 2-596 limits assumed): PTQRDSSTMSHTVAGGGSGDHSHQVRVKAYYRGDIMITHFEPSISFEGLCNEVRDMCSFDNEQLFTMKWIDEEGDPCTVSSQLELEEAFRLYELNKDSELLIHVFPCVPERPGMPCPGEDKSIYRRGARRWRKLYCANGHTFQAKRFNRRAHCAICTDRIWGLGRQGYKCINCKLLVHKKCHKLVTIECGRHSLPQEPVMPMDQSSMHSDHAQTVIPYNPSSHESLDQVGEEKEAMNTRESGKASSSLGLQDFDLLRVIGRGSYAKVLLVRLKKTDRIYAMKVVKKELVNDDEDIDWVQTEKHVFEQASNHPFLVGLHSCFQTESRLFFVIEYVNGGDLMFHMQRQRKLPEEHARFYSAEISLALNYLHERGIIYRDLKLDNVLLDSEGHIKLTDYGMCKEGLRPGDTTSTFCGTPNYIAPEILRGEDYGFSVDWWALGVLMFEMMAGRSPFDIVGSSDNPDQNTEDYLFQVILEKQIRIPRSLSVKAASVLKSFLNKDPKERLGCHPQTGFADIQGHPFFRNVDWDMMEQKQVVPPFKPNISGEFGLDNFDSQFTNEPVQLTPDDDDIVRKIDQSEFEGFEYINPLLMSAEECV
As to the kind of experiment: Kinome profiling PKC-1. To be noted: read-out: Inhibitory activity PKC-1; for inhibition at 0.1 µM: 100 nM. As to the method: as §1

A further assay has as its target PAK6 (Homo sapiens, UniProt Q9NQU5). Kind of assay: Kinome profiling PAK6. Particulars: read-out: Inhibitory activity PAK6; for inhibition at 0.1 µM: 100 nM. As to the method:
as §1

Another assay deals with PI3-K-α (Homo sapiens, UniProt P42336). Kind of assay: Kinome profiling PI3-K-α. Particulars: read-out: Inhibitory activity PI3-K-α; for inhibition at 0.1 µM: 100 nM. As to the method: as §1
A further assay deals with T3, HIPK4 (Homo sapiens, UniProt Q8NE63).
T3 sequence (Q8NE63 1-616): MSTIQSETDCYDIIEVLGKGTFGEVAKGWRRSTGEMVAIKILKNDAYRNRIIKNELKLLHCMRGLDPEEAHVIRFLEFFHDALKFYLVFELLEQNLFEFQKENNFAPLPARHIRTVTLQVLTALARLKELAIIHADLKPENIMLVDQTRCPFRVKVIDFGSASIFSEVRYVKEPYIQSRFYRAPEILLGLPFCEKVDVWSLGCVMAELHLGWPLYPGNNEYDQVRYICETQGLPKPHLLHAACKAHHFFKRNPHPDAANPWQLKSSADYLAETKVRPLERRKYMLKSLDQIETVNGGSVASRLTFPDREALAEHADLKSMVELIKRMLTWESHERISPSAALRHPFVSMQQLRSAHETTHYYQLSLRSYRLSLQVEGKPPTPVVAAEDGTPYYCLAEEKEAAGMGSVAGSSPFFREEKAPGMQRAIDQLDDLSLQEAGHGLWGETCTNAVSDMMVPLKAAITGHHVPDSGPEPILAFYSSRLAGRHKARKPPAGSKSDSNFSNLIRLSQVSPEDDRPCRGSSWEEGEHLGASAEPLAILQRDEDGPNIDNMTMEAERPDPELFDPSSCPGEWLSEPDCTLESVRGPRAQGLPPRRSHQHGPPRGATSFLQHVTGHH
As to the kind of experiment: Kinome profiling HIPK4. Particulars: read-out: Inhibitory activity HIPK4; for inhibition at 0.1 µM: 100 nM. As to the method:
as §1

The next assay addresses NEK7 (Homo sapiens, UniProt Q8TDX7). As to the kind of experiment: Kinome profiling NEK7. To be noted: read-out: Inhibitory activity NEK7; for inhibition at 0.1 µM: 100 nM. How it is done:
as §1

The next assay addresses HCK (Homo sapiens, UniProt P08631). As to the kind of experiment: Kinome profiling HCK. To be noted: read-out: Inhibitory activity HCK; for inhibition at 0.1 µM: 100 nM. How it is done:
as §1

In a further assay the target is MAPK1 (Homo sapiens, UniProt P28482). Kind of assay: Kinome profiling MAPK1. To be noted: read-out: Inhibitory activity MAPK1; for inhibition at 0.1 µM: 100 nM. As to the method:
as §1

The next assay deals with PKC-η (Homo sapiens, UniProt P24723). As to the kind of experiment: Kinome profiling PKC-η. Particulars: read-out: Inhibitory activity PKC-η; for inhibition at 0.1 µM: 100 nM. As to the method: as §1
Another assay has as its target SPHK1 (Homo sapiens, UniProt Q9NYA1). As to the kind of experiment: Kinome profiling SPHK1. Particulars: read-out: Inhibitory activity SPHK1; for inhibition at 0.1 µM: 100 nM. As to the method:
as §1

PAK6, sequence (Q9NQU5 whole entry): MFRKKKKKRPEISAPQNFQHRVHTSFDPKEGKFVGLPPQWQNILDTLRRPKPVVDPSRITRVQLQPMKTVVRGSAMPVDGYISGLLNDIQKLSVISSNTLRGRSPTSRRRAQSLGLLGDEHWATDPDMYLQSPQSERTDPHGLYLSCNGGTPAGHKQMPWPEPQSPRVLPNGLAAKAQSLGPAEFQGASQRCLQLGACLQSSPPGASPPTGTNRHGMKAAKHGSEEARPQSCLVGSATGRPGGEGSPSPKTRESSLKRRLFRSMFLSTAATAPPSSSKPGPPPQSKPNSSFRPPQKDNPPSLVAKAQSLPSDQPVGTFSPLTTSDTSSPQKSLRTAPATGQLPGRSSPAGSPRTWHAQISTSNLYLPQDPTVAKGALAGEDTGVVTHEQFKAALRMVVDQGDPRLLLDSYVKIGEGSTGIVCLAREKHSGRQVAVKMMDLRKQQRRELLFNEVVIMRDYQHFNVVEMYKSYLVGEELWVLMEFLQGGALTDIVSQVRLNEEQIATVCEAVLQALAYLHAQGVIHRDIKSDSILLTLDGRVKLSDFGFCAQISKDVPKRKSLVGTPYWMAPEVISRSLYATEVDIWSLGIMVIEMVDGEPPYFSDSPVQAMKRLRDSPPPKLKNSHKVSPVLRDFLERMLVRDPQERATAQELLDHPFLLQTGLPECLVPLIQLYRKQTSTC
CDK5/p35, sequence (Q00535 whole entry): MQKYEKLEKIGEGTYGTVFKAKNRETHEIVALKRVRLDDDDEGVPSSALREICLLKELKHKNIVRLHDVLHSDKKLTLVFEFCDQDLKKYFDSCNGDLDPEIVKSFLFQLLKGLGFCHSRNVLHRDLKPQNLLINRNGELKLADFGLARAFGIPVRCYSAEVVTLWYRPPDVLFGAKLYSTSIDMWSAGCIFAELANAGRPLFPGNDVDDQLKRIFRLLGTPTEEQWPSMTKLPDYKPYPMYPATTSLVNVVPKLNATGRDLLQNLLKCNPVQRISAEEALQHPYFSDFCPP
CDK5/p35, sequence (Q15078 whole entry partner): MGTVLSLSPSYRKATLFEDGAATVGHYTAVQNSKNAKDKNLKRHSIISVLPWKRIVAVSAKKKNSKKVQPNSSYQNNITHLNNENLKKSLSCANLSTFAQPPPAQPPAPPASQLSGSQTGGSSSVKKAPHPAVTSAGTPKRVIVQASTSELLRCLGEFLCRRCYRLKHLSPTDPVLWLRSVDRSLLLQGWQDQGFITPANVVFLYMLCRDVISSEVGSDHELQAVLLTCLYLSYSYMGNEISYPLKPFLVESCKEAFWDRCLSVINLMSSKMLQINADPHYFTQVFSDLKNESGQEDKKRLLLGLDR
NEK7, sequence (Q8TDX7 whole entry): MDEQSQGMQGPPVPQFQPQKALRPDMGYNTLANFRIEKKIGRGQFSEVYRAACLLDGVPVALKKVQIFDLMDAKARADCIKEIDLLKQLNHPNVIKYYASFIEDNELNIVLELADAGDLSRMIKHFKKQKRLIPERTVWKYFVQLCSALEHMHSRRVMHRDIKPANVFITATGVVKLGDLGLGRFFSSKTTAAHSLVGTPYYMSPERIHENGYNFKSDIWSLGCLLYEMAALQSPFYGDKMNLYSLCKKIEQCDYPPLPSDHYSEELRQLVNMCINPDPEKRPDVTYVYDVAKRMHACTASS
SPHK1, sequence (Q9NYA1 whole entry): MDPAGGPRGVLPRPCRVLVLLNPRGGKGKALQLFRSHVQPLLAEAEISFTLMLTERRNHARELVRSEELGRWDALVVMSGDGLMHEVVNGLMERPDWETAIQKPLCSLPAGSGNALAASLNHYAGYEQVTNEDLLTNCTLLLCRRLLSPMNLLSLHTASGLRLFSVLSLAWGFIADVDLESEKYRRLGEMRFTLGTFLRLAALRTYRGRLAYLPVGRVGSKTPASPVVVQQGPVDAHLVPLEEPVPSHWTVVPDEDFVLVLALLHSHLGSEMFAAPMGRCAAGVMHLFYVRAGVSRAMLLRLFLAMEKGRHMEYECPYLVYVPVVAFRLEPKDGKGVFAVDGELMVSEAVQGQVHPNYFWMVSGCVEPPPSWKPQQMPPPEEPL
HCK, sequence (P08631 whole entry): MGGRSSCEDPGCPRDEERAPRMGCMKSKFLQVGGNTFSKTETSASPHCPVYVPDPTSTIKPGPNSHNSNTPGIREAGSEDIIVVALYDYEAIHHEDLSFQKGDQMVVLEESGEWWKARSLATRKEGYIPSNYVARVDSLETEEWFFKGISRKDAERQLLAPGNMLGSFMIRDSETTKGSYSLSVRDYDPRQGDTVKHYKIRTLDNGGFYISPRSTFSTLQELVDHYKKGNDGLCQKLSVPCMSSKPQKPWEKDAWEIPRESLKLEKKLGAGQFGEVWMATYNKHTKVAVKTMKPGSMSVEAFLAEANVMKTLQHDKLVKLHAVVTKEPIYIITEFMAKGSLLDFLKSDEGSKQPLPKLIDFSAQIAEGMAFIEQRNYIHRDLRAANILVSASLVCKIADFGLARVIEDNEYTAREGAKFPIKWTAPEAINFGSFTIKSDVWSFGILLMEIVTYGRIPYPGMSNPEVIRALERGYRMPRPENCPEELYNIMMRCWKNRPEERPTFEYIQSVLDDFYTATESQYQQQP
PKC-η, sequence (P24723 whole entry): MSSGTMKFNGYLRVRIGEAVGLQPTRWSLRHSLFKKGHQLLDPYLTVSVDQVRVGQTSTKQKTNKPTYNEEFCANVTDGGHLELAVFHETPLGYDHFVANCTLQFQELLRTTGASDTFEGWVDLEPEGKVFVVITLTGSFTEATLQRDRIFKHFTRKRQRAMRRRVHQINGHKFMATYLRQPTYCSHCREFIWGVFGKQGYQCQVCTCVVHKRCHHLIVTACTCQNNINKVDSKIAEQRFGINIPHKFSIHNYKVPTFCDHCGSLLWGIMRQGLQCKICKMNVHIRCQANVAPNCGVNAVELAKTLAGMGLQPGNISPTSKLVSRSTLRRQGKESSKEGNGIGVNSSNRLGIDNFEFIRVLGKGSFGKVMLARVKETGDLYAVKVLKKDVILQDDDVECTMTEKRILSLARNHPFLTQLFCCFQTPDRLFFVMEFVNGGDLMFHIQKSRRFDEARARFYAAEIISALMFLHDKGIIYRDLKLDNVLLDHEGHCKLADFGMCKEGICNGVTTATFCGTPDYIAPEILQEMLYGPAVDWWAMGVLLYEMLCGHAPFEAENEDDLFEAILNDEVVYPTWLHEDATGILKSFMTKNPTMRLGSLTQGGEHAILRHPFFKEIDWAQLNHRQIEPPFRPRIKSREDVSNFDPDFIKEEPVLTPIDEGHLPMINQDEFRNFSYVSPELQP
JAK2, sequence (O60674 whole entry): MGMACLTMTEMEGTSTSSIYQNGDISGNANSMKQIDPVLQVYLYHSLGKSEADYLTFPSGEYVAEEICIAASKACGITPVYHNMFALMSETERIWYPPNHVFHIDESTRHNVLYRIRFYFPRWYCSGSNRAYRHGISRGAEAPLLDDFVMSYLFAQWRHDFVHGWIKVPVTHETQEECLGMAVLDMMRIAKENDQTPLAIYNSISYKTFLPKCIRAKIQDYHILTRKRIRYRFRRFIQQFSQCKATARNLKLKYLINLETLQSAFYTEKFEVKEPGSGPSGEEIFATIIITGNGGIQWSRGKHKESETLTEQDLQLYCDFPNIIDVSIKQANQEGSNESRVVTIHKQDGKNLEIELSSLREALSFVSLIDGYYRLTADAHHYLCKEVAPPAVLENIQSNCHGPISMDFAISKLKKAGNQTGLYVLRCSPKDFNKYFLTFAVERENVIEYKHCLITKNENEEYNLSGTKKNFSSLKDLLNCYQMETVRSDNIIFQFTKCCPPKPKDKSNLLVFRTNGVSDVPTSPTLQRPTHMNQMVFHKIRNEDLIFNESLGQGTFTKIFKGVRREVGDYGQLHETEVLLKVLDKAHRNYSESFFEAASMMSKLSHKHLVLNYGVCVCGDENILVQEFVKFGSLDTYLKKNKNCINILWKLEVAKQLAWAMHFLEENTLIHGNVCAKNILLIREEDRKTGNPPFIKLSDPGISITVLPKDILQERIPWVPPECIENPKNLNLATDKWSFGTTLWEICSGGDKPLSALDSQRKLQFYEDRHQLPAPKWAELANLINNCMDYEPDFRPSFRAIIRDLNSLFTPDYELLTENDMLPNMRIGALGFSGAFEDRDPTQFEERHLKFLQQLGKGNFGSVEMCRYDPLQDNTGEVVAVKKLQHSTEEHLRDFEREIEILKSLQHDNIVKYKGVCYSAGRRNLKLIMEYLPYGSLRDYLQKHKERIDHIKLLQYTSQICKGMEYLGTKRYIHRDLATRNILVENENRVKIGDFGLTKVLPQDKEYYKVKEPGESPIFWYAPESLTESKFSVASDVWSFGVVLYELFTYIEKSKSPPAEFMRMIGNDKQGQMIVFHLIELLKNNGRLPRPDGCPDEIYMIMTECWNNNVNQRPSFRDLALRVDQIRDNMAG
MAPK1, sequence (P28482 whole entry): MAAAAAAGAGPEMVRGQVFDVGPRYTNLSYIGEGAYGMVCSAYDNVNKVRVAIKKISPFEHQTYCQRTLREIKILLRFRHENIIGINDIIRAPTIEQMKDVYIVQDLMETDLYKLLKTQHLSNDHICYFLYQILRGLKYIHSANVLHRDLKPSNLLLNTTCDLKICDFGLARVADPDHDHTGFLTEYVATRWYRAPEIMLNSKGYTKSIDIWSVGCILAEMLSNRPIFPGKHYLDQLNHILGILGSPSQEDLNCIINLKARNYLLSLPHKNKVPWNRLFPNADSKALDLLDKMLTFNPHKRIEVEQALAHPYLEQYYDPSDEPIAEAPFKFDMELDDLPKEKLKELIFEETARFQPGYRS

For the molecule `COc1cc(-c2cc(-c3ccc(N4CCNCC4)cc3)cnc2N)cc(OC)c1OC` [Compound 15, 5-(4-(piperazin-1-yl)phenyl)-3-(3,4,5-trimethoxyphenyl)pyridin-2-amine], the inhibition at 0.1 µM at GRK7 is 2%; on CDK5/p35, 0%; at JAK2 it was 0%; at PKC-1, 1%; at PAK6 it was 5%; at PI3-K-α, 4%. Further, the inhibition at 0.1 µM on HIPK4 was determined as 1%; at NEK7, 9%; on HCK, 41%; on MAPK1 it was 3%; at PKC-η, 3%; at SPHK1, 2%. The inhibition at 1 µM on GRK7 came out at 0%; at CDK5/p35 it was 0%; at JAK2, 0%; at PKC-1, 1%; at PAK6, 3%; on PI3-K-α it was 4%. Moreover, the inhibition at 1 µM at HIPK4 was 2%; at NEK7 it was 2%; on HCK, 81%; at MAPK1, 6%; on PKC-η, -1%; on SPHK1, -12%.

In the case of `COc1cc(-c2cc(-c3ccc(N4CCNCC4)cc3)cnc2C)cc(OC)c1OC` [Compound 10, 1-(4-(6-methyl-5-(3,4,5-trimethoxyphenyl)pyridin-3-yl)phenyl)piperazine], the inhibition at 0.1 µM at GRK7 was 3%; at CDK5/p35, 2%; on JAK2, 5%; on PKC-1 it was 12%; on PAK6 it was 1%; at PI3-K-α, 5%. Besides, the inhibition at 0.1 µM at HIPK4 was 5%; on NEK7, 4%; on HCK, 3%; at MAPK1, 1%; at PKC-η, 5%; on SPHK1, 0%. In addition, the inhibition at 1 µM was found to be 4% at GRK7; 2% at CDK5/p35; 4% at JAK2; 3% on PKC-1; 5% on PAK6; 7% on PI3-K-α. The inhibition at 1 µM on HIPK4 was 8%; at NEK7, 3%; on HCK, 15%; at MAPK1 it was 1%; on PKC-η it was 18%; at SPHK1 it was 0%.
